From patent US20100093667A1, “SALTS OF HIV INHIBITOR COMPOUNDS” (Gilead Sciences, Inc., priority 2008, published 2010)

System: HIV-1 IIIB
Experiment: Anti-HIV-1 activity in MT-2 cells, virus-induced cytopathic effect (CellTiter-Glo)
Assay type: cell-based
Protocol: MT-2 cells were maintained in RPMI-1640 medium supplemented with antibiotics and 10% fetal bovine serum (FBS). MT-2 cells were infected with HIV-1 IIIB at a multiplicity of infection (moi) of 0.01 and added to 96-well plates with serial dilutions of tested compounds at a density of 20,000 cells/well. […] Activity against NRTI-resistant mutants was determined in parallel with wild-type control virus and fold change in EC50 was calculated.

CCOC(=O)[C@H](C)N[P@](=O)(CO[C@@H]1C=C(F)[C@H](n2cnc3c(N)ncnc32)O1)Oc1ccccc1 (single isomer, unassigned) [Prodrug]
EC50 (Human immunodeficiency virus 1, MT2, 120 h, MT-2 cells, HIV-1 IIIB, 5-day incubation, mean ± SD): 150 ± 40 nM | more potent than the parent compound (MT-2): 71 fold
